Molecular target: T1, Aβ40 and Aβ42 peptides in plasma and brain of TgCRND8 mice (Homo sapiens, UniProt P05067)
T1 construct: ELISA using Human Aβ40 and Aβ42 Fluorometric ELISA kits from Biosource; from tissue; host or cells: plasma and brain homogenate of TgCRND8 transgenic mice (hAPP transgene)
Assay: Short term treatment in adult transgenic CRND8 mice overexpressing βAPP: Aβ levels in plasma and brain by ELISA
Assay type: in vivo, Mouse
Conditions: for Brain homogenate Aβ40 Change Insoluble / Brain homogenate Aβ42 Change Insoluble / Brain homogenate Aβ42 Change Soluble / Brain homogenate Aβ40 Change Soluble / Plasma Aβ40 Change / Plasma Aβ42 Change: TgCRND8 mice
Description: Transgenic mice, […]8, expressing the human amyloid precursor protein (hAPP) develop a pathology resembling Alzheimer's disease. In particular, high levels of Aβ40 and Aβ 42 have been documented in the plasma and the brain of these animals at 8-9 weeks of age, followed by early accumulation of amyloid plaques similar to the senile plaques observed in AD patients. These animals also display progressive cognitive deficits that parallel the appearance of degenerative changes. See, […], et al., J. Biol. Chem. 276, 21562-70 (2001). The short term therapeutic effect of 19 compounds of the invention was studied. […] The following abbreviations are used to designate these animals from the 3rd and 4th generation backcross in the present protocol: TgCRND8-2.B6C3F1(N3); TgCRND8-2.B6C3F1(N4). Baseline animals (Group 1) consisted of naive TgCRND8-2. B6C3F1(N3) at 11±1 weeks of age. These mice were used to determine the Aβ levels in the plasma and brain of naive transgenic animals at the initiation of treatment. […] At the end of the treatment periods, plasma and perfused brains were collected for quantification of Aβ levels. […] Plasma samples were immediately frozen and stored at -80° C. pending analysis. The brains were removed, frozen, and stored at -80° C. awaiting analysis. […] Samples were spun at 15000 g for 20 minutes and the supernatants were transferred to fresh tubes. […] The tubes were vortexed for 30 seconds and frozen at -80° C. […] Samples were thawed at room temperature, sonicated at 80° C. for 15 minutes and frozen again. This cycle was repeated 3 times to ensure homogeneity and samples were returned to -80° C. pending analysis. Aβ levels were evaluated in plasma and brain samples by ELISA using Human Aβ40 and Aβ42 Fluorometric ELISA kits from Biosource (Cat. […] In short, samples were thawed at room temperature, sonicated for 5 minutes at 80° C. (sonication for brain homogenates; no sonication for plasma samples) and kept on ice. Aβ peptides were captured using 100 μl of the diluted samples to the plate and incubated without shaking at 4° C. overnight. The samples were aspirated and the wells were rinsed 4 times with wash buffer obtained from the Biosource ELISA kit. The anti-Aβ40 or anti-Aβ42 rabbit polyclonal antiserum (specific for the Aβ40 or Aβ42 peptide) was added (100 μl) and the plate was incubated at room temperature for 2 hours with shaking. The wells were aspirated and washed 4 times before adding 100 μl of the alkaline phosphatase labeled anti-rabbit antibody and incubating at room temperature for 2 hours with shaking. The plates were then rinsed 5 times and the fluorescent substrate (100 μl) was added to the plate. The plate was incubated for 35 minutes at room temperature and the plate was read using a titer plate reader at an excitation wavelength of 460 nm and emission at 560 nm Compounds were scored based on their ability to modulate levels of Aβ peptides in the plasma and the cerebral soluble/insoluble levels in the brain. Levels of Aβ observed in the plasma and brain of treated animals were normalized using values from vehicle-treated (water) or methylcellulose-treated control groups and ranked according to the strength of the pharmacological effect. Increases in the levels of Aβ peptides are indicated using “+” symbols, while decreases in the levels of Aβ peptides are indicated using “-” symbols. The strongest effects are recorded as “+++” or “- - -” while the weakest are shown as “+” or “-”.

[1] = Brain Homogenate Vehicle Group, Day 14, 250 mg/kg daily
[2] = Brain Homogenate Vehicle Group, Day 28, 250 mg/kg daily
[3] = Plasma Vehicle Group, Day 14, 250 mg/kg daily subcutaneous, normalized to water vehicle control
[4] = Brain Homogenate Methylcellulose Group, Day 14, 250 mg/kg daily oral
[5] = Brain Homogenate Methylcellulose Group, Day 28, 250 mg/kg daily oral
[6] = Plasma Vehicle Group, Day 28, 250 mg/kg daily subcutaneous, normalized to water vehicle control
[7] = Brain Homogenate Vehicle Group, Day 28, total levels, soluble and insoluble not measured independently, 250 mg/kg daily

Row | SMILES | Brain homogenate Aβ40 Change Insoluble [1] | Brain homogenate Aβ42 Change Insoluble [1] | Brain homogenate Aβ42 Change Soluble [1] | Brain homogenate Aβ40 Change Insoluble [2] | Brain homogenate Aβ42 Change Insoluble [2] | Brain homogenate Aβ40 Change Soluble [2] | Brain homogenate Aβ42 Change Soluble [2] | other results
1 | CC(C)(CO)NCCCS(=O)(=O)O [DH, 3-(1,1-dimethyl-2-hydroxyethyl)amino-1-propanesulfonic acid] | −− (decreases of 20 to 38% are scored as “− −”) | −−− (decreases of 39% or more are scored as “− − −”) | −−− (decreases of 39% or more are scored as “− − −”) | − (Decreases in the levels of Aβ of 5 to 19% are scored as “−”) | − (Decreases in the levels of Aβ of 5 to 19% are scored as “−”) |  |  | 
2 | CCC(CC)NCCCS(=O)(=O)O [DD, 3-(3-pentyl)amino-1-propanesulfonic acid] | − (Decreases in the levels of Aβ of 5 to 19% are scored as “−”) |  |  | − (Decreases in the levels of Aβ of 5 to 19% are scored as “−”) |  |  |  | 
3 | COc1ccc([C@H](C)NCCCS(=O)(=O)O)cc1 [DZ, 3-[(S)-1-(4-methoxyphenyl)ethyl]amino-1-propanesulfonic acid] |  | −− (decreases of 20 to 38% are scored as “− −”) |  | −− (decreases of 20 to 38% are scored as “− −”) | −− (decreases of 20 to 38% are scored as “− −”) | − (Decreases in the levels of Aβ of 5 to 19% are scored as “−”) | −− (decreases of 20 to 38% are scored as “− −”) | 
4 | COCC(NCCCS(=O)(=O)O)[C@@H](O)c1ccccc1 (stereo in doubt) [EG, 3-[(1R,2S)-2-hydroxy-1-(methoxymethyl)-2-phenylethyl]amino-1-propanesulfonic acid] | −− (decreases of 20 to 38% are scored as “− −”) | −− (decreases of 20 to 38% are scored as “− −”) | −− (decreases of 20 to 38% are scored as “− −”) | −− (decreases of 20 to 38% are scored as “− −”) | −− (decreases of 20 to 38% are scored as “− −”) |  |  | Brain homogenate Aβ40 Change Soluble [1]: − (Decreases in the levels of Aβ of 5 to 19% are scored as “−”)
5 | CC(C)(NCCCS(=O)(=O)O)c1ccccc1 [DM, 3-cumylamino-1-propanesulfonic acid] | + (increases in the levels of Aβ (relative to untreated control) of 20 to 39% are scored as “+”) | − (Decreases in the levels of Aβ of 5 to 19% are scored as “−”) | − (Decreases in the levels of Aβ of 5 to 19% are scored as “−”) | −− (decreases of 20 to 38% are scored as “− −”) | −− (decreases of 20 to 38% are scored as “− −”) | − (Decreases in the levels of Aβ of 5 to 19% are scored as “−”) | −− (decreases of 20 to 38% are scored as “− −”) | 
6 | C#CC1(NCCCS(=O)(=O)O)CCCCC1 [DX, 3-(1-ethynylcyclohexyl)amino-1-propanesulfonic acid] | −− (decreases of 20 to 38% are scored as “− −”) | − (Decreases in the levels of Aβ of 5 to 19% are scored as “−”) |  | −− (decreases of 20 to 38% are scored as “− −”) | −− (decreases of 20 to 38% are scored as “− −”) |  | − (Decreases in the levels of Aβ of 5 to 19% are scored as “−”) | 
7 | O=S(=O)(O)CCCNC1CC2CCC1C2 (centres unmarked) [BY, 3-(2-norbornyl)amino-1-propanesulfonic acid] | +++ (increases of 70% or higher are scored as “+ + +”) |  | +++ (increases of 70% or higher are scored as “+ + +”) | +++ (increases of 70% or higher are scored as “+ + +”) | +++ (increases of 70% or higher are scored as “+ + +”) | + (increases in the levels of Aβ (relative to untreated control) of 20 to 39% are scored as “+”) |  | Brain homogenate Aβ40 Change Soluble [1]: +++ (increases of 70% or higher are scored as “+ + +”); Plasma Aβ40 Change [3]: + (increases in the levels of Aβ (relative to untreated control) of 20 to 39% are scored as “+”); Plasma Aβ42 Change [3]: + (increases in the levels of Aβ (relative to untreated control) of 20 to 39% are scored as “+”)
8 | O=S(=O)(O)CCCNCC(O)c1ccccc1 (centres unmarked) [DY] | −− (decreases of 20 to 38% are scored as “− −”) | −− (decreases of 20 to 38% are scored as “− −”) |  | −−− (decreases of 39% or more are scored as “− − −”) | −− (decreases of 20 to 38% are scored as “− −”) |  | − (Decreases in the levels of Aβ of 5 to 19% are scored as “−”) | 
9 | CC12CC3CC(C)(C1)CC(NCCCS(=O)(=O)O)(C3)C2 [CY] |  |  |  |  |  |  |  | Brain homogenate Aβ40 Change Soluble [4]: − (Decreases in the levels of Aβ of 5 to 19% are scored as “−”); Brain homogenate Aβ42 Change Insoluble [4]: ++ (increases of 40 to 69% are scored as “++”); Brain homogenate Aβ42 Change Soluble [4]: +++ (increases of 70% or higher are scored as “+ + +”); Brain homogenate Aβ40 Change Insoluble [5]: +++ (increases of 70% or higher are scored as “+ + +”); Brain homogenate Aβ40 Change Soluble [5]: ++ (increases of 40 to 69% are scored as “++”); Brain homogenate Aβ42 Change Insoluble [5]: + (increases in the levels of Aβ (relative to untreated control) of 20 to 39% are scored as “+”); Brain homogenate Aβ42 Change Soluble [5]: +++ (increases of 70% or higher are scored as “+ + +”); Plasma Aβ42 Change (Plasma Methylcellulose Group, Day 28, 250 mg/kg daily oral in 1% methylcellulose, normalized to methylcellulose control): + (increases in the levels of Aβ (relative to untreated control) of 20 to 39% are scored as “+”)
10 | O=S(=O)(O)CC(O)CNC1CCCCC1 (centres unmarked) [DC] | −− (decreases of 20 to 38% are scored as “− −”) | −− (decreases of 20 to 38% are scored as “− −”) | + (increases in the levels of Aβ (relative to untreated control) of 20 to 39% are scored as “+”) | + (increases in the levels of Aβ (relative to untreated control) of 20 to 39% are scored as “+”) | +++ (increases of 70% or higher are scored as “+ + +”) | − (Decreases in the levels of Aβ of 5 to 19% are scored as “−”) | ++ (increases of 40 to 69% are scored as “++”) | Plasma Aβ40 Change [3]: ++ (increases of 40 to 69% are scored as “++”); Plasma Aβ42 Change [3]: ++ (increases of 40 to 69% are scored as “++”); Plasma Aβ40 Change [6]: ++ (increases of 40 to 69% are scored as “++”)
11 | CCNCCCS(=O)(=O)O [CV, 3-ethylamino-1-propanesulfonic acid] |  |  |  |  |  |  |  | Brain homogenate Aβ40 Change, total level (Brain Homogenate Vehicle Group, Day 14, total levels, soluble and insoluble not measured independently, 250 mg/kg daily): − (Decreases in the levels of Aβ of 5 to 19% are scored as “−”); Brain homogenate Aβ40 Change, total level [7]: ++ (increases of 40 to 69% are scored as “++”); Brain homogenate Aβ42 Change, total level [7]: +++ (increases of 70% or higher are scored as “+ + +”); Plasma Aβ40 Change [3]: + (increases in the levels of Aβ (relative to untreated control) of 20 to 39% are scored as “+”); Plasma Aβ42 Change [3]: ++ (increases of 40 to 69% are scored as “++”); Plasma Aβ40 Change [6]: ++ (increases of 40 to 69% are scored as “++”); Plasma Aβ42 Change [6]: ++ (increases of 40 to 69% are scored as “++”)

— patent publication US8642801B2 (BHI Limited Partnership, priority 2003, dated 2014)
